Assay results reported in the NIST ThermoML archive (doi:10.1016/j.jct.2008.07.009).

Assay: xn = mol fraction of the nth substance listed
Conditions: 101 kPa, Liquid, Vibrating tube method

CC(=O)N1CCOCC1 [4-acetylmorpholine] + Cc1cc(C)cc(C)c1
mass density [kg/m3]
Conditions | 293.15 K | 303.15 K | 313.15 K | 323.15 K | 333.15 K | 343.15 K
x2 = 0.0654 | 1094.6 | 1086.8 | 1077.7 | 1069.3 | 1060.8 | 1052.2
x2 = 0.1128 | 1081.2 | 1073.4 | 1063.8 | 1055.4 | 1046.9 | 1038.5
x2 = 0.1763 | 1063.5 | 1055.7 | 1045.7 | 1037.3 | 1028.9 | 1020.4
x2 = 0.2254 | 1050.2 | 1042.3 | 1032 | 1023.5 | 1015.1 | 1006.7
x2 = 0.2845 | 1034.5 | 1026.5 | 1015.8 | 1007.4 | 999 | 990.6
x2 = 0.3241 | 1024.2 | 1016.2 | 1005.2 | 996.8 | 988.4 | 980
x2 = 0.3837 | 1008.9 | 1000.9 | 989.5 | 981 | 972.7 | 964.3
x2 = 0.4266 | 998.1 | 990.1 | 978.3 | 969.9 | 961.6 | 953.2
x2 = 0.4978 | 980.4 | 972.3 | 960.2 | 951.9 | 943.5 | 935.2
x2 = 0.5436 | 969.2 | 961.1 | 948.8 | 940.4 | 932.1 | 923.8
x2 = 0.6116 | 952.8 | 944.8 | 932.1 | 923.9 | 915.6 | 907.3
x2 = 0.6984 | 932.5 | 924.4 | 911.4 | 903.1 | 894.9 | 886.8
x2 = 0.7452 | 921.6 | 913.6 | 900.4 | 892.2 | 884 | 875.9
x2 = 0.7944 | 910.4 | 902.3 | 888.9 | 880.8 | 872.7 | 864.6
x2 = 0.8541 | 897 | 889 | 875.4 | 867.2 | 859.1 | 851
x2 = 0.8932 | 888.3 | 880.2 | 866.5 | 858.4 | 850.3 | 842.2
x2 = 0.9423 | 877.5 | 869.5 | 855.6 | 847.5 | 839.4 | 831.3
x2 = 0.9833 | 868.7 | 860.6 | 846.5 | 838.5 | 830.4 | 822.3
